Measured values taken from patent publication US20220072009A1, “SHORT-ACTING SELECTIVE GLUCOCORTICOID RECEPTOR MODULATORS” (PANDA CONSULTING LLC, priority 2018, published 2022).

Legend:
male CD-1 mice = assay: elevated plus maze test (EPM), mouse model of stress-induced anxiety; type: in vivo
Method: Formula III (also referred to as PND-001) as a representative compound out of the class of SASGRMs was tested in a mouse model of stress-induced anxiety, the elevated plus maze test (EPM) (Experiment 1). The EPM relies on the inherent conflict between a rodent's tendency to explore a novel environment on one hand, and the stress of such exploration, resulting in avoidance of the aversive properties of the brightly lit open arms. Compounds that reduce anxiety specifically increase the frequency of entries into the open arms and time spent in the open arms.
Four to five week-old male CD-1 mice were group-housed (6 or 7 mice per cage) and maintained in a room with controlled temperature (21-22° C.) and a reversed light-dark cycle (12 h/12 h; lights on: 17:30-05:30; lights off: 05:30-17:30) with food and water available ad libitum.
Formula III and the vehicle (5% Dimethyl Sulfoxide (DMSO) and 95% Polyethylene Glycol 400 (PEG400)) were s.c. administrated 24 hours and 6 hours prior the EPM trial.
Diazepam was p.o. administrated 60 min prior the EPM trial as a positive control.
Formula III was tested in doses of 10, 30 and 100 mg/kg. Diazepam was p.o administrated 60 min prior the EPM trial and tested in a dose of 1 mg/kg. (see Table 1).
The mice were randomly assigned to one of the different experimental groups. Each animal was identified by its group name, cage number, series (day) of experiment, and a number (from 1 to 12) written with permanent ink on its tail.
The apparatus was a PVC maze covered with Plexiglas and subdivided into four equal exploratory arms (21×8 cm), which are all interconnected by a small platform (8×8 cm). The apparatus was placed 59 cm above the floor. Two arms are opened and two others are closed with wall (high: 21 cm).
After compound administration, mouse was placed on the platform opposite a closed arm. The number of entries and the time spent in each arm were recorded during a 5 min period. The animal was considered as entered in an arm when it places its four paws in the arm.
Analysis of variance (ANOVA) was performed on the result data. Fisher's PLSD was used for pairwise comparisons and p value ≤0.05 were considered significant.
In the next experiment in the Elevated Plus Maze Test (Experiment 2; conducted as described under the same experimental procedures and analysis as described for Experiment 1), the efficacy of Formula III (also referred to as PND001) at lower doses was studied. […] Compounds or vehicle (5% Dimethyl Sulfoxide (DMSO) and 95% Polyethylene Glycol 400 (PEG400)) were administrated s.c. 24 hours and 6 hours prior the EPM trial (Table 3).
Formula III (PND 001) was tested in doses of 1, 3 and 10 mg/kg. Formula IV (PND 002) was tested in doses of 30 mg/kg. Diazepam was p.o administrated 60 min prior the EPM trial as positive control and tested in a dose of 1 mg/kg.
In a third experiment in the Elevated Plus Maze Test (Experiment 3), conducted as described under the same experimental procedures and analysis as described for Experiment 1, the effect of the dosing route and regimen was investigated. Formula III (also referred to as PND001) and the vehicle (5% Dimethyl Sulfoxide (DMSO) and 95% Polyethylene Glycol 400 (PEG400)) were administrated by gavage (p.o.). Diazepam was i.p. administrated 30 min prior the EPM trial as positive control.
PND 001 was tested in doses of 3 mg/kg which had the highest efficacy in Experiment 2, and administrated either twice at 6 h and 1 h before the EPM trial, or given only once at 1 h before the trial. Diazepam was i.p. administrated 30 min prior the EPM trial and tested in a dose of 1 mg/kg. (see Table 5).

[1] = reported, cited from earlier work
MDCK cell monolayers = conditions: pH 7.4
Method: BBB penetration is assessed in vitro using confluent MDCK cell monolayers and dosing of 504 of test compounds on apical and basolateral side of the monolayer at pH 7.4 for 90 min. The apparent permeability in both directions, and the efflux ratio is determined after subjecting samples to LC-MS/MS analysis.

corticosterone = conditions: mouse, in vivo, po, 30 mg/kg
rat hepatocytes = conditions: in vitro, reported; cited from earlier work
human plasma proteins = conditions: reported; cited from earlier work
rat plasma proteins = conditions: reported; cited from earlier work
[2] = Experiment 1, 1 mg/kg po 60 min
[3] = Experiment 2, 1 mg/kg po 60 min
[4] = Experiment 3, 1 mg/kg ip 30 min
[5] = Experiment 3, 1 mg/kg, 30 min, ip
[6] = Experiment 2, 30 mg/kg sc 24 h and 6 h
[7] = Experiment 2, 30 mg/kg, 24 + 6 h, sc

## CN1C(=O)CN=C(c2ccccc2)c2cc(Cl)ccc21 [Diazepam, reference compound]
Male CD-1 mice; [2]
  increase in number of entries to the open arms compared to vehicle treated mice: 233%
  increase in time spent in the open arms compared to vehicle treated mice: 327%
Male CD-1 mice; Experiment 1, 1 mg/kg, 1 h, po
  Number of entries in the open arm, Mean: 10.0 n
  Time spent in the open arm, Mean: 59.6 s
Male CD-1 mice; [3]
  increase in number of entries into the open arms compared to vehicle treated mice: 146%
  increase in time spent into the open arms compared to vehicle treated mice: 151%
Male CD-1 mice; Experiment 2, 1 mg/kg, 1 h, po
  Number of entries in the open arm, Mean: 14.0 n
  Time spent in the open arm, Mean: 84.6 s
Male CD-1 mice; [4]
  increase in number of entries into the open arms compared to vehicle treated mice: 400%
  increase in time spent into the open arms compared to vehicle treated mice: 270%
Male CD-1 mice; [5]
  Number of entries in the open arm, Mean: 23.2 n
  Time spent in the open arm, Mean: 116.9 s

## CC#C[C@]1(O)CCC2C3CCC4=CC(=O)CC[C@]4(Cc4ccc(C)cc4)C3=CC[C@@]21C (stereo partly drawn) [Formula I, (10R,13S,17S)-17-hydroxy-13-methyl-10-[(4-methylphenyl)methyl]-17-prop-1-ynyl-2,6,7,8,12,14,15,16-octahydro-1H-cyclopenta[a]phenanthrene-3-one]
[1]; in vitro
  half life in rat liver microsomes: 19.8 min
MDCK cell monolayers
  BBB penetration potential: moderate to high
corticosterone
  corticosterone increase: not found to be significantly increased
Rat hepatocytes
  half life in rat hepatocytes: less than 0.2 h

## C[C@]12CCC3C(C[C@H]4OC[C@@]35CCC(=O)C=C45)C1CC[C@@H]2C(=O)CO (some centres unmarked) [Formula II]
MDCK cell monolayers
  BBB penetration potential: moderate to high
corticosterone
  corticosterone increase: not found to be significantly increased

## CCCCCCNC(=O)[C@@]1(O)[C@H](C)CC2[C@@H]3CCC4=CC(=O)C=C[C@]4(C)[C@@]3(F)[C@@H](O)C[C@@]21C (some centres unmarked) [Formula IV]
[1]
  conversion to unidentified metabolites in rat liver microsomes (time): ≤ 30 min
MDCK cell monolayers
  BBB penetration potential: moderate to high
corticosterone
  corticosterone increase: not found to be significantly increased
Male CD-1 mice; [6]
  increase in number of entries into the open arms compared to vehicle treated mice: 77%
  increase in time spent into the open arms compared to vehicle treated mice: 90%
Male CD-1 mice; [7]
  Number of entries in the open arm, Mean: 10.1 n
  Time spent in the open arm, Mean: 64.1 s

## C[C@]12C=CC(=O)C=C1CCC1C2OC[C@@]2(C)C1CC[C@]2(O)C(=O)CO (some centres unmarked) [Formula V]
MDCK cell monolayers
  BBB penetration potential: moderate to high
corticosterone
  corticosterone increase: not found to be significantly increased

## CC#C[C@]1(O)CC[C@H]2[C@@H]3CCC4=CC(=O)CCC4=C3[C@@H](c3ccc(N(C)C)cc3)C[C@@]21C [mifepristone]
Human plasma proteins
  plasma protein binding, human serum: over 95%
Rat plasma proteins
  plasma protein binding, rat serum: over 95%
